How the values were obtained:
PC12 cells [1] = test: NGF-mediated neurite growth by PC12 cells; assay type: cell-based, rat
Method: (§1) PC12 cells or PC12^nnr5 cells (Loeb et al., 1991) were seeded on poly-D-lysine-coated (0.1 mg·ml^−1, overnight) 96-well microculture dishes (Falcon) at approximately 800 cells per well with RPMI with 10% fetal calf serum. Peptides were added to replicate wells 48 hours before, or at the time of, addition of NGF. NGF was prepared by the method of Mobley et al. (1976) and used at 1-2 nM. Other additives were diluted at least 100-fold and added to the wells as described. At various times following incubation at 37° C., 5% CO2, wells were scored for neurite-bearing cells by serial counting of representative circumferences of each well.
(§2) A Leitz Diavert inverted microscope with phase optics was used to score neurite growth. For both PC12 cells and sensory neurons, a neurite was scored as such if its calibre from origin to terminal was approximately the same and the length was equal to or greater than 1.5 cell body diameters.

[2] = Precipitation out of aqueous solution; assay type: physicochemical
PC12 cells [3] = test: Binding of [125I]NGF to PC12 cells; parameters: species or system rat; conditions: co-incubated with [125I]NGF
Method: (§3) PC12 cells were removed from culture dishes with CMF, washed, and incubated at a concentration of 10^6 per ml in Hepes-Krebs-Ringer (HKR) buffer buffer with 1 mg·ml^−1 BSA for 90 minutes at 37° C. in the presence of 40 pM [^125I]NGF in the absence and presence of excess unlabeled NGF, and in the absence and presence of R3 peptide. Aliquots of 100 μl were removed in replicates and mircocentrifuged at 10,000×g for 1 minute. Supernatants were removed, tips were cut from the microcentrifuge tube and counted in a gamma counter. Specific binding was defined as the difference between binding of the ligand in the absence and presence of unlabeled NGF, and fractional specific binding in the absence and presence of R3 peptide was compared. Studies of [^125I]NGF uptake into PC12 and PC12^nnr5 cells were carried out in the absence and presence of 10 μM R3 peptide and following a 24-hour exposure of PC12 cultures to 10 μM R3 peptide. Cells were eposed to 20 pM or 0.2 nM [^125I]NGF for periods of time up to 240 minutes (steady state) at 37° C. The cells were then briefly acid-washed as described by Bernd and Greene (1984), and aliquots were prepared for gamma counting as described. NGF was radioiodinated as described in Sutter et al. (1979b).

ciliary neurons = test: CNTF survival effect on ciliary neurons; assay type: cell-based
PC12 cells [4] = test: Uptake of [125I]NGF into PC12 cells; assay type: cell-based, rat; conditions: 20 pM or 0.2 nM [125I]NGF; saturating R3
Method: as §3

PC12^nnr5 cells [5] = test: NGF-mediated neurite growth by PC12nnr5 cells; assay type: cell-based, rat; conditions: absence or presence of R3 peptide
Method: as §1, §2

PC12 cells [6] = test: Basic fibroblast growth factor-mediated neurite growth by PC12 cells; assay type: cell-based, rat
PC12 cells [7] = test: Acid phosphatase assay of cell survival, PC12 cells; assay type: cell-based, rat; conditions: PC12 (high-TrkA), serum-free conditions
Method: This is a colorimetric assay which measures the lysosomal enzyme acid phosphatase to determine cell number (Connolly et al., 1986) modified by Ueda et al. (1994) for use with cultured neuronal cells. Medium was removed gently from PC12 or PC12^nnr5 cells cultured in 96 well plates and well were washed once with 200 μl PBS. Then 100 μl of buffer containing 0.1M sodium acetate pH 5.5, 0.1% TRITON™ X-100, and 10 mM p-nitrophenyl phosphate (Sigma 104 phosphatase substrate) was added to each well. Plates were placed in a 37° C., 5% CO2 incubator for 3 hours. The reaction was stopped by the addition of 10 μl/well of 1N sodium hydroxide and the colour development measured at 405 nm using a microplate reader (Titertek). The first column on each plate contained no cells (buffer only) and was used as a blank. The relationship between cell number and enzyme activity was linear over the range 1000 to 15,000 cells.
To exclude the possibility that the effects of R3 on neurite growth in the experiments described above were indirect and mediated by an influence on cell survival, PC12 and PC12^nnr5 cells were exposed to serum free conditions in the absence and presences of NGF, and in the absence and presence of R3. […] Nor was there any difference in NGF-mediated survival whether R3 exposure occurred before or at the same time as NGF exposure. […]

[8] = test system: embryonic 19 day rat DRG neurons; test: NGF-mediated neurite growth by ED19 rat DRG neurons; assay type: cell-based
Method: Dissociated cells enriched for sensory neurons from DRG of ED8 chick or ED19 rat were prepared as described in detail previously (Sutter et al., 1979a). ED19 rat DRG dissociates were not pre-plated pror to bioassay. Cells were seeded into wells of Terasaki plates previously treated with poly-D-lysine at 700-900 per well in supplemented Ham's F12 medium with 2.5% fetal calf serum and NGF at concentrations between 0.04 and 40 pM. The cells were incubated with the additives as described at 37° C., 5% CO2, and scored at various times for neurite growth by counting all cells on the lower horizontal surface of the wells, which is approximately 15% of the surface area of the top of the tapered wells.
as §2

PC12^nnr5 cells [9] = test: Uptake of [125I]NGF into PC12nnr5 cells; assay type: cell-based, rat; conditions: 20 pM or 0.2 nM [125I]NGF; saturating R3
Method: as §3

With LDALLAALRRIQR [R3] the “Effect of R3 on enhancement of NGF-mediated neurite growth in presence of Mg2+, in words” value (PC12 cells [1]; 10 mM Mg^+2) was “inhibited completely”, the “Neurite growth-enhancing effect of R3 in presence of pertussis toxin, in words” value (PC12 cells [1]; PC12 cells pre-treated with pertussis toxin) was “did not influence” and the “Effect on NGF-mediated neurite growth, co-incubation, in words” value (PC12 cells [1]; PC12 cells, peptide co-incubated with NGF) was “enhanced temporally the neurite growth response”. For the same sequence, the “Time of maximal effect on NGF-mediated neurite growth” value (PC12 cells [1]; all concentrations of R3) was 40 to 48 h, the “Effect on neurite growth response to NGF, pre-incubation, in words” value (PC12 cells [1]; peptide present 24 or 48 hours prior to addition of NGF) was “inhibited transiently” and the “Concentration at which the peptide tended to precipitate out of aqueous solution with time” value [2] was ≥ 50 µM. The “Effect on [125I]NGF binding, in words” value (PC12 cells [3]) was “no effect on steady-state total or non-displaceable binding”, the “Influence on survival effect of CNTF on ciliary neurons, in words” value (ciliary neurons) was “no influence” and the “Rates of [125I]NGF uptake, in words” value (PC12 cells [4]) was “not influenced”. The “Neurite growth in PC12nnr5 cells with NGF, in words” value (PC12^nnr5 cells [5]) was “no effects on neurite growth”, the “Influence on basic fibroblast growth factor-mediated neurite growth, in words” value (PC12 cells [6]) was “no influence” and the “Influence on NGF-mediated cell survival, in words” value (PC12 cells [7]) was “no influence on NGF-mediated survival”. For the same sequence, the “Effect on NGF-mediated neurite growth, co-incubation, in words” value [8] was “enhancing effect” and the “Rates of [125I]NGF uptake, in words” value (PC12^nnr5 cells [9]) was “not influenced”.
